Where two headings read alike, the source gives them in different places. Some results are limits rather than exact numbers.

Experiment [1] concerns the target T1, recombinant human A2A receptors (Homo sapiens, UniProt P29274).
T1 construct: expressed in transfected cells; host or cells: Sf9 insect cells infected with virus; membranes
Nature of the experiment: Radioligand competition binding with 125I-APE or 125I-ZM241385, Sf9 cell membranes. The conditions noted are these: 125I-APE or 125I-ZM241385, Sf9 membranes; class symbols. The method, then:
Cell culture and membrane preparation. Sf9 cells were cultured in Grace's medium supplemented with 10% fetal bovine serum, 2.5 μg/ml amphotericin B and 50 μg/ml gentamycin in an atmosphere of 50% N2/50% O2. Viral infection was performed at a density of 2.5×10^6 cells/mL with a multiplicity of infection of two for each virus used. Infected cells were harvested 3 days post-infection and washed twice in insect PBS (PBS pH 6.3). Cells were then resuspended in lysis buffer (20 mM HEPES pH 7.5, 150 mM NaCl, 3 mM MgCl2, 1 mM α-mercaptoethanol (BME), 5 μg/mL leupeptin, 5 μg/mL pepstatin A, 1 μg/mL aprotinin, and 0.1 mM PMSF) and snap frozen for storage at −80° C. Cells were thawed on ice, brought to 30 mL total volume in lysis buffer, and burst by N2 cavitation (600 psi for 20 minutes). A low-speed centrifugation was performed to remove any unlysed cells (1000×g for 10 minutes), followed by a high-speed centrifugation (17,000×g for 30 minutes). The pellet from the final centrifugation was homogenized in buffer containing 20 mM HEPES pH 8, 1100 mM NaCl, 1% glycerol, 2 μg/mL leupeptin, 2 μg/mL pepstatin A, 2 μg/mL Aprotinin, 0.1 mM PMSF, and 10 μM GDP using a small glass homogenizer followed by passage through a 26 gauge needle. Membranes were aliquoted, snap frozen in liquid N2, and stored at −80° C.
Radioligand Binding Assays. […] Binding experiments were performed in triplicate with 5 μg (A2A) or 25 μg (A1 and A3) membrane protein in a total volume of 00.1 mL HE buffer (20 mM HEPES and 1 mM EDTA) with 1 U/mL adenosine deaminase and 5 mM MgCl2 with or without 50 μM GTPγS. Membranes were incubated with radioligands at room temperature for three hours (for agonists) or two hours (for antagonists) in Millipore Multiscreen® 96-well GF/C filter plates and assays were terminated by rapid filtration on a cell harvester (Brandel, Gaithersburg, Md.) followed by 4×150 μl washes over 30 seconds with ice cold 10 mM Tris-HCl, pH 7.4, 10 mM MgCl2. Nonspecific binding was measured in the presence of 50 μM NECA.

Experiment [2] concerns Purified human neutrophils. Nature of the experiment: Luminol enhanced chemiluminescence (neutrophil oxidative activity), fMLP stimulated. It counts as cell-based. The conditions noted are these: read-out: Functional. From the text:
Chemiluminescence Methods: Luminol enhanced chemiluminescence, a measure of neutrophil oxidative activity, is dependent upon both superoxide production and mobilization of the granule enzyme myeloperoxidase. The light is emitted from unstable high-energy oxygen species such as hypochlorous acid and singlet oxygen generated by activated neutrophils.
Purified human neutrophils (2×10^6/ml) suspended in Hanks balanced salt solution containing 0.1% human serum albumin (HA), adenosine deaminase (1 U/mL) and rolipram (100 nM) were incubated (37 C) in a water bath for 15 min with or without rhTNF (10 U/ml). Following incubation 100 µL aliquots of the PMN were transferred to wells (White walled clear bottom 96 well tissue culture plates Costar #3670; 2 wells/condition) containing […] and luminol (final concentration 100M) with or without adenosine agonist (final agonist concentrations 0.01-1000 nM). The plate was incubated 5 min (37 C) and then fMLP (50 l in HA; final concentration […]) was added to all wells.
Peak chemiluminescence was determined with a Victor 1420 Multilabel Counter in the chemiluminescence mode using the Wallac Workstation software. Data are presented as peak chemiluminescence as percent of activity in the absence of an adenosine agonist. The EC50 was determined using PRISM software. All compounds were tested with PMNs from three separate donors.

The target in a further experiment is T2, human A3 AR (Homo sapiens, UniProt P0DMS8).
T2 construct: expressed in transfected cells; membranes
T2 sequence (P0DMS8 1-318): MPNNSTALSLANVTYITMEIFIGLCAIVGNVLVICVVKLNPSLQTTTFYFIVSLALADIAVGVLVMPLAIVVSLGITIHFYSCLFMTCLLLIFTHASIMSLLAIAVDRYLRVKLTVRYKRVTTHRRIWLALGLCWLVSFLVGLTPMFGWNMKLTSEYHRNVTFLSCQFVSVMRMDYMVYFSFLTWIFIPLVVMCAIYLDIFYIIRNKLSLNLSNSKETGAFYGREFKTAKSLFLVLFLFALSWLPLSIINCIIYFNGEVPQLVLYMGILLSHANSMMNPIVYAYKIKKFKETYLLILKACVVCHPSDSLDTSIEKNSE
Description: Radioligand competition binding with 125I-ABA, membranes of HEK 293 cells stably expressing the receptor. The conditions noted are these: Ki derived from IC50, class symbols. As for the experimental part:
Cell culture and membrane preparation. Sf9 cells were cultured in Grace's medium supplemented with 10% fetal bovine serum, 2.5 μg/ml amphotericin B and 50 μg/ml gentamycin in an atmosphere of 50% N2/50% O2. Viral infection was performed at a density of 2.5×10^6 cells/mL with a multiplicity of infection of two for each virus used. Infected cells were harvested 3 days post-infection and washed twice in insect PBS (PBS pH 6.3). Cells were then resuspended in lysis buffer (20 mM HEPES pH 7.5, 150 mM NaCl, 3 mM MgCl2, 1 mM α-mercaptoethanol (BME), 5 μg/mL leupeptin, 5 μg/mL pepstatin A, 1 μg/mL aprotinin, and 0.1 mM PMSF) and snap frozen for storage at −80° C. Cells were thawed on ice, brought to 30 mL total volume in lysis buffer, and burst by N2 cavitation (600 psi for 20 minutes). A low-speed centrifugation was performed to remove any unlysed cells (1000×g for 10 minutes), followed by a high-speed centrifugation (17,000×g for 30 minutes). The pellet from the final centrifugation was homogenized in buffer containing 20 mM HEPES pH 8, 1100 mM NaCl, 1% glycerol, 2 μg/mL leupeptin, 2 μg/mL pepstatin A, 2 μg/mL Aprotinin, 0.1 mM PMSF, and 10 μM GDP using a small glass homogenizer followed by passage through a 26 gauge needle. Membranes were aliquoted, snap frozen in liquid N2, and stored at −80° C. Membranes from cells stably expressing the human A1 AR (CHO K1 cells) or A3 AR (HEK 293 cells) were prepared as described (Robeva et al., 1996).
Radioligand Binding Assays. Radioligand binding to recombinant human A2A receptors in Sf9 cell membranes was performed using either the radiolabeled agonist, ^125I-APE (Luthin et al., 1995) or the radiolabeled antagonist, ^125I-ZM241385 (^125I-ZM). To detect the high affinity, GTPγS-sensitive state of A1 and A3 AR, we used the agonist, ^125I-ABA (Linden et al., 1985; Linden et al., 1993). Binding experiments were performed in triplicate with 5 μg (A2A) or 25 μg (A1 and A3) membrane protein in a total volume of 00.1 mL HE buffer (20 mM HEPES and 1 mM EDTA) with 1 U/mL adenosine deaminase and 5 mM MgCl2 with or without 50 μM GTPγS. Membranes were incubated with radioligands at room temperature for three hours (for agonists) or two hours (for antagonists) in Millipore Multiscreen® 96-well GF/C filter plates and assays were terminated by rapid filtration on a cell harvester (Brandel, Gaithersburg, Md.) followed by 4×150 μl washes over 30 seconds with ice cold 10 mM Tris-HCl, pH 7.4, 10 mM MgCl2. Nonspecific binding was measured in the presence of 50 μM NECA. Competition binding assays were performed as described (Robeva et al., 1996) using 0.5-1 nM ^125I-APE, ^125I-ZM241385, or ^125I-ABA. […] The Ki values for competing compound binding to a single site were derived from IC50 values with correction for radioligand and competing compound depletion as described previously (Linden, 1982).

For a further experiment, the target named is T3, human A1 AR (Homo sapiens, UniProt P30542).
T3 construct: expressed in transfected cells; membranes
T3 sequence (P30542 1-326): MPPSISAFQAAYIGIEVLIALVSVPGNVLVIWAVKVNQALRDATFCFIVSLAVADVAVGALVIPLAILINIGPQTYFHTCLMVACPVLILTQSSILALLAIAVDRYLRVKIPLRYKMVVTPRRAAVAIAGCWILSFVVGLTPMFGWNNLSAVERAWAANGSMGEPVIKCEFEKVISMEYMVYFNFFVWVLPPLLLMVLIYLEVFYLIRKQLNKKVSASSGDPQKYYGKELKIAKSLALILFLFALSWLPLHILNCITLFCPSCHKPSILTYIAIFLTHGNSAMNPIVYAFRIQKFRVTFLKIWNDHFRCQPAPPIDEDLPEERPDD
Description: Radioligand competition binding with 125I-ABA, membranes of CHO K1 cells stably expressing the receptor. The conditions noted are these: Ki derived from IC50, class symbols.

Setting [3] is: EC50 of peak chemiluminescence, human PMN, rolipram 100 nM, fMLP, three donors, class symbols.

T1 sequence (P29274 whole entry): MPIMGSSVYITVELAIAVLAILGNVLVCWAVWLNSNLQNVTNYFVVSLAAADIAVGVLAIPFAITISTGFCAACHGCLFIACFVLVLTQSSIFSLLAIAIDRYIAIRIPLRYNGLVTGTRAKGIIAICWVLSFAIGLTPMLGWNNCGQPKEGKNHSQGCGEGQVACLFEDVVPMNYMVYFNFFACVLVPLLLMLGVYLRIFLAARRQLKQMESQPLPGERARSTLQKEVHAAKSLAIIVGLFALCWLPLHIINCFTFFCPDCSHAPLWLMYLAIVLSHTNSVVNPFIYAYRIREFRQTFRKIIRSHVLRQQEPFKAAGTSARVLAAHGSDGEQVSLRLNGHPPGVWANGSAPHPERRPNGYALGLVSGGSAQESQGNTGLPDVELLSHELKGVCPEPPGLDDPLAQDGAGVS

As for `Nc1nc(C#CCC2CCN(C(=O)OCCOCc3ccccc3)CC2)nc2c1ncn2[C@@H]1O[C@H](CO)C(O)[C@@H]1O` (some centres unmarked) [Compound 7, 2-{3-[1-((2-Benzyloxy)ethoxycarbonyl)piperidin-4-yl]propyn-1-yl}adenosine], the Ki in experiment [1] was < 1 nM; at human A3 AR, < 100 nM; at human A1 AR, < 100 nM. The EC50 in experiment [2] (Homo sapiens, Neutrophil) was < 10 nM.

Consider `CCNC(=O)[C@H]1O[C@@H](n2cnc3c(N)nc(C#CCC4CCN(C(=O)Oc5ccc(C(=O)OC)cc5)CC4)nc32)[C@@H](O)C1O` (some centres unmarked) [Compound 25, N-Ethyl 2-{3-[1-(4-methoxycarboxyphenyloxycarbonyl)-4-piperidinyl]-1-propyn-1-yl}adenosine-5′-uronamide], for which the Ki in experiment [1] is < 10 nM; on human A3 AR it was < 100 nM; on human A1 AR, > 100 nM. Besides, in experiment [2] (Homo sapiens, Neutrophil), the EC50 was < 10 nM.

`Nc1nc(C#CCC2CCN(C(=O)Oc3ccc(Cl)c(Cl)c3)CC2)nc2c1ncn2[C@@H]1O[C@H](C(=O)NC2CC2)C(O)[C@@H]1O` (some centres unmarked) [Compound 51, N-Cyclopropyl 2-{3-[1-(3,4-chlorophenoxycarbonyl)-4-piperidinyl]-1-propyn-1-yl}adenosine-5′-uronamide]: the Ki in experiment [1] was < 1 nM; on human A3 AR it was < 100 nM; on human A1 AR, < 100 nM. In addition, the EC50 in experiment [2] (Homo sapiens, Neutrophil) is < 1 nM.

Regarding `CCNC(=O)[C@H]1O[C@@H](n2cnc3c(N)nc(C#CCC4CCN(C(=O)Oc5ccc([N+](=O)[O-])cc5)CC4)nc32)[C@@H](O)C1O` (some centres unmarked) [Compound 19, N-Ethyl 2-{3-[1-(4-nitrophenyloxycarbonyl)-4-piperidinyl]-1-propyn-1-yl}adenosine-5′-uronamide], the Ki in experiment [1] was < 1 nM; at human A3 AR it was < 10 nM; at human A1 AR it was < 100 nM. Besides, the EC50 in experiment [2] (Homo sapiens, Neutrophil) is < 1 nM.

For `CCNC(=O)[C@H]1O[C@@H](n2cnc3c(N)nc(C#CCC4CCN(C(=O)Oc5ccccc5Cl)CC4)nc32)[C@@H](O)C1O` (some centres unmarked) [Compound 31, N-Ethyl 2-{3-[1-(2-chlorophenyloxycarbonyl)-4-piperidinyl]-1-propyn-1-yl}adenosine-5′-uronamide], the Ki in experiment [1] is < 1 nM; at human A3 AR, < 10 nM; at human A1 AR it was < 100 nM. The EC50 in experiment [2] (Homo sapiens, Neutrophil) was < 10 nM.

Take `Cc1ccc(OC(=O)N2CCC(CC#Cc3nc(N)c4ncn([C@@H]5O[C@H](C(=O)NC6CC6)[C@@H](O)[C@H]5O)c4n3)CC2)cc1C` [Compound 47, N-Cyclopropyl 2-{3-[1-(3,4-dimethylphenoxycarbonyl)-4-piperidinyl]-1-propyn-1-yl}adenosine-5′-uronamide]: the Ki was < 1 nM in experiment [1], < 100 nM on human A3 AR and < 100 nM on human A1 AR. Besides, in experiment [2] (setting [3]), the EC50 is < 1 nM.

With `N=C(Oc1ccc(F)cc1)N1CCC(CC#Cc2nc(N)c3ncn([C@@H]4O[C@H](C(=O)NC5CC5)[C@@H](O)[C@H]4O)c3n2)CC1` [Compound 41, N-Cyclopropyl 2-{3-[1-(4-fluorophenyloxycarboxymidyl)-4-piperidinyl]-1-propyn-1-yl}adenosine-5′-uronamide], the Ki is < 10 nM in experiment [1], > 100 nM on human A3 AR and < 100 nM at human A1 AR. Besides, in experiment [2] (setting [3]), the EC50 was < 10 nM.

Turning to `Nc1nc(C#CCC2CCN(C(=O)Oc3ccc([N+](=O)[O-])cc3)CC2)nc2c1ncn2[C@@H]1O[C@H](C(=O)NC2CC2)C(O)[C@@H]1O` (some centres unmarked) [Compound 10, N-Cyclopropyl 2-{3-[1-(4-nitrophenyloxycarbonyl)-4-piperidinyl]-1-propyn-1-yl}adenosine-5′-uronamide], the Ki in experiment [1] is < 1 nM; at human A3 AR, < 100 nM; on human A1 AR, < 100 nM. In addition, the EC50 in experiment [2] (Homo sapiens, Neutrophil) is < 1 nM.

With `N=C(Oc1ccc(Cl)cc1)N1CCC(CC#Cc2nc(N)c3ncn([C@@H]4O[C@H](C(=O)NC5CC5)[C@@H](O)[C@H]4O)c3n2)CC1` [Compound 42, N-Cyclopropyl 2-{3-[1-(4-chlorophenyloxycarboxymidyl)-4-piperidinyl]-1-propyn-1-yl}adenosine-5′-uronamide], the Ki was < 10 nM in experiment [1], > 100 nM at human A3 AR and > 100 nM on human A1 AR. In experiment [2] (setting [3]), the EC50 is > 100 nM.

For “N-Cyclopropyl 2-[3-[1-(4-nitrophenoxycarbonyl) 4-propylpiperidine]}-1-carboxylate]adenosine-5′-uronamide [Compound 40]”, in experiment [2] (setting [3]), the EC50 was < 100 nM. In addition, the Ki on human A3 AR is > 100 nM.
